# Reference: ChEMBL document CHEMBL4011590, “Structure-activity relationship studies on 3,5-dinitrophenyl tetrazoles as antitubercular agents” (Eur J Med Chem, 2017)
# pIC50: −log10 of the molar value.
# How the values were obtained:
# [1] = test system: Candida albicans; assay: Antifungal activity against Candida albicans ATCC 44859 after 24 hrs by broth microdilution method; assay type: functional; settings: ATCC 44859, 24 h
# [2] = test system: Klebsiella pneumoniae; assay: Antibacterial activity against extended spectrum beta-lactamase producing Klebsiella pneumoniae HK14368/08 after 48 hrs by broth microdilution method; assay type: functional; settings: HK14368/08, 48 h
# [3] = test system: Trichosporon asahii; assay: Antifungal activity against Trichosporon asahii 1188 after 48 hrs by broth microdilution method; assay type: functional; settings: Trichosporon asahii, 1188, 48 h
# [4] = test system: Staphylococcus epidermidis; assay: Antibacterial activity against Staphylococcus epidermidis HK6966/08 after 48 hrs by broth microdilution method; assay type: functional; settings: HK6966/08, 48 h
# [5] = test system: Candida tropicalis; assay: Antifungal activity against Candida tropicalis 156 after 48 hrs by broth microdilution method; assay type: functional; settings: Candida tropicalis, 156, 48 h
# [6] = test system: Escherichia coli; assay: Antibacterial activity against Escherichia coli ATCC 8739 after 48 hrs by broth microdilution method; assay type: functional; settings: ATCC 8739, 48 h
# [7] = test system: Staphylococcus aureus; assay: Antibacterial activity against Staphylococcus aureus ATCC 6538 after 24 hrs by broth microdilution method; assay type: functional; settings: ATCC 6538, 24 h
# [8] = test system: Enterococcus sp.; assay: Antibacterial activity against Enterococcus sp. HK14365/08 after 48 hrs by broth microdilution method; assay type: functional; settings: HK14365/08, 48 h
# [9] = test system: Pseudomonas aeruginosa; assay: Antibacterial activity against Pseudomonas aeruginosa ATCC 9027 after 24 hrs by broth microdilution method; assay type: functional; settings: ATCC 9027, 24 h
# [10] = test system: Pseudomonas aeruginosa; assay: Antibacterial activity against Pseudomonas aeruginosa ATCC 9027 after 48 hrs by broth microdilution method; assay type: functional; settings: ATCC 9027, 48 h
# [11] = test system: Klebsiella pneumoniae; assay: Antibacterial activity against Klebsiella pneumoniae HK11750/08 after 24 hrs by broth microdilution method; assay type: functional; settings: HK11750/08, 24 h
# [12] = test system: Klebsiella pneumoniae; assay: Antibacterial activity against extended spectrum beta-lactamase producing Klebsiella pneumoniae HK14368/08 after 24 hrs by broth microdilution method; assay type: functional; settings: HK14368/08, 24 h
# [13] = test system: Mycobacterium kansasii; assay: Antimycobacterial activity against Mycobacterium kansasii CNCTC My 235/80 after 21 days by micromethod; assay type: functional; settings: CNCTC My 235/80, 504 h
# [14] = test system: Staphylococcus epidermidis; assay: Antibacterial activity against Staphylococcus epidermidis HK6966/08 after 24 hrs by broth microdilution method; assay type: functional; settings: HK6966/08, 24 h
# [15] = test system: Nakaseomyces glabratus; assay: Antifungal activity against Candida glabrata 20/I after 24 hrs by broth microdilution method; assay type: functional
# [16] = test system: Staphylococcus aureus; assay: Antibacterial activity against methicillin-resistant Staphylococcus aureus HK5996/08 after 24 hrs by broth microdilution method; assay type: functional; settings: HK5996/08, 24 h
# [17] = test system: Nakaseomyces glabratus; assay: Antifungal activity against Candida glabrata 20/I after 48 hrs by broth microdilution method; assay type: functional
# [18] = test system: Staphylococcus aureus; assay: Antibacterial activity against Staphylococcus aureus ATCC 6538 after 48 hrs by broth microdilution method; assay type: functional; settings: ATCC 6538, 48 h
# [19] = test system: Mycobacterium avium; assay: Antimycobacterial activity against Mycobacterium avium CNCTC My 330/80 after 14 days by micromethod; assay type: functional; settings: CNCTC My 330/80, 336 h
# [20] = test system: Candida albicans; assay: Antifungal activity against Candida albicans ATCC 44859 after 48 hrs by broth microdilution method; assay type: functional; settings: ATCC 44859, 48 h
# [21] = test system: Pichia kudriavzevii; assay: Antifungal activity against Candida krusei E28 after 24 hrs by broth microdilution method; assay type: functional; settings: E28, 24 h
# [22] = test system: Mycobacterium kansasii; assay: Antimycobacterial activity against Mycobacterium kansasii CNCTC My 235/80 after 14 days by micromethod; assay type: functional; settings: CNCTC My 235/80, 336 h
# [23] = test system: Mycobacterium avium; assay: Antimycobacterial activity against Mycobacterium avium CNCTC My 330/80 after 21 days by micromethod; assay type: functional; settings: CNCTC My 330/80, 504 h
# [24] = test system: Mycobacterium tuberculosis; assay: Antimycobacterial activity against Mycobacterium tuberculosis H37Rv CNCTC My 331/88 after 14 days by micromethod; assay type: functional; settings: H37Rv CNCTC My 331/88, 336 h
# [25] = test system: Enterococcus sp.; assay: Antibacterial activity against Enterococcus sp. HK14365/08 after 24 hrs by broth microdilution method; assay type: functional; settings: HK14365/08, 24 h
# [26] = test system: Escherichia coli; assay: Antibacterial activity against Escherichia coli ATCC 8739 after 24 hrs by broth microdilution method; assay type: functional; settings: ATCC 8739, 24 h
# [27] = test system: Mycobacterium kansasii; assay: Antimycobacterial activity against Mycobacterium kansasii isolate 6509/96 after 14 days by micromethod; assay type: functional; settings: isolate 6509/96, 336 h
# [28] = test system: Trichophyton mentagrophytes; assay: Antifungal activity against Trichophyton mentagrophytes 445 after 72 hrs by broth microdilution method; assay type: functional; settings: Trichophyton mentagrophytes, 445, 72 h
# [29] = test system: Mycobacterium tuberculosis; assay: Antimycobacterial activity against Mycobacterium tuberculosis H37Rv CNCTC My 331/88 after 21 days by micromethod; assay type: functional; settings: H37Rv CNCTC My 331/88, 504 h
# [30] = test system: Trichosporon asahii; assay: Antifungal activity against Trichosporon asahii 1188 after 24 hrs by broth microdilution method; assay type: functional; settings: Trichosporon asahii, 1188, 24 h
# [31] = test system: Mycobacterium kansasii; assay: Antimycobacterial activity against Mycobacterium kansasii isolate 6509/96 after 21 days by micromethod; assay type: functional; settings: isolate 6509/96, 504 h
# [32] = test system: Staphylococcus aureus; assay: Antibacterial activity against methicillin-resistant Staphylococcus aureus HK5996/08 after 48 hrs by broth microdilution method; assay type: functional; settings: HK5996/08, 48 h
# [33] = test system: Pichia kudriavzevii; assay: Antifungal activity against Candida krusei E28 after 48 hrs by broth microdilution method; assay type: functional; settings: E28, 48 h
# [34] = test system: Aspergillus fumigatus; assay: Antifungal activity against Aspergillus fumigatus 231 after 24 hrs by broth microdilution method; assay type: functional; settings: Aspergillus fumigatus, 231, 24 h
# [35] = test system: Candida tropicalis; assay: Antifungal activity against Candida tropicalis 156 after 24 hrs by broth microdilution method; assay type: functional; settings: Candida tropicalis, 156, 24 h
# [36] = test system: Trichophyton mentagrophytes; assay: Antifungal activity against Trichophyton mentagrophytes 445 after 120 hrs by broth microdilution method; assay type: functional; settings: Trichophyton mentagrophytes, 445, 120 h
# [37] = test system: Mycobacterium kansasii; assay: Antimycobacterial activity against Mycobacterium kansasii isolate 6509/96 after 7 days by micromethod; assay type: functional; settings: isolate 6509/96, 168 h
# [38] = test system: Lichtheimia corymbifera; assay: Antifungal activity against Absidia corymbifera 272 after 24 hrs by broth microdilution method; assay type: functional; settings: Lichtheimia corymbifera, 272, 24 h
# [39] = test system: Lichtheimia corymbifera; assay: Antifungal activity against Absidia corymbifera 272 after 48 hrs by broth microdilution method; assay type: functional; settings: Lichtheimia corymbifera, 272, 48 h
# [40] = test system: Klebsiella pneumoniae; assay: Antibacterial activity against Klebsiella pneumoniae HK11750/08 after 48 hrs by broth microdilution method; assay type: functional; settings: HK11750/08, 48 h
# [41] = test system: Mycobacterium kansasii; assay: Antimycobacterial activity against Mycobacterium kansasii CNCTC My 235/80 after 7 days by micromethod; assay type: functional; settings: CNCTC My 235/80, 168 h
# [42] = test system: Aspergillus fumigatus; assay: Antifungal activity against Aspergillus fumigatus 231 after 48 hrs by broth microdilution method; assay type: functional; settings: Aspergillus fumigatus, 231, 48 h
# [43] = test system: CHO-K1; assay: Cytotoxicity against CHOK1 cells after 24 hrs by MTT assay; assay type: cell-based; settings: Cricetulus griseus, CHO-K1, 24 h
smiles,measurement,setting,value
Cc1ccc(Cn2nnnc2-c2cc([N+](=O)[O-])cc([N+](=O)[O-])c2)cc1,MIC,[1],> 500 µM
same,MIC,[2],500 µM
same,MIC,[3],> 500 µM
same,MIC,[4],250 µM
same,MIC,[5],> 500 µM
same,MIC,[6],500 µM
same,MIC,[7],125 µM
same,MIC,[8],250 µM
same,MIC,[9],> 500 µM
same,MIC,[10],> 500 µM
same,MIC,[11],500 µM
same,MIC,[12],500 µM
same,MIC99,[13],4 µM
same,MIC,[14],250 µM
same,MIC,[15],> 500 µM
same,MIC,[16],125 µM
same,MIC,[17],> 500 µM
same,MIC,[18],125 µM
same,MIC99,[19],8 µM
same,MIC,[20],> 500 µM
same,MIC,[21],> 500 µM
same,MIC99,[22],2 µM
same,MIC99,[23],16 µM
same,MIC99,[24],1 µM
same,MIC,[25],250 µM
same,MIC,[26],500 µM
same,MIC99,[27],4 µM
same,MIC,[28],> 500 µM
same,MIC99,[29],2 µM
same,MIC,[30],> 500 µM
same,MIC99,[31],4 µM
same,MIC,[32],125 µM
same,MIC,[33],> 500 µM
same,MIC,[34],> 500 µM
same,MIC,[35],> 500 µM
same,MIC,[36],> 500 µM
same,MIC99,[37],2 µM
same,MIC,[38],> 500 µM
same,MIC,[39],> 500 µM
same,MIC,[40],500 µM
same,MIC99,[41],1 µM
same,MIC,[42],> 500 µM
same,pIC50,[43],4.55
O=[N+]([O-])c1cc(-c2nnn(Cc3cccc(Cl)c3)n2)cc([N+](=O)[O-])c1,MIC,[1],> 500 µM
same,MIC,[2],> 500 µM
same,MIC,[3],> 500 µM
same,MIC,[4],> 500 µM
same,MIC,[5],> 500 µM
same,MIC,[6],> 500 µM
same,MIC,[7],> 500 µM
same,MIC,[8],> 500 µM
same,MIC,[9],> 500 µM
same,MIC,[10],> 500 µM
same,MIC,[11],> 500 µM
same,MIC,[12],> 500 µM
same,MIC99,[13],2 µM
same,MIC,[14],> 500 µM
same,MIC,[15],> 500 µM
same,MIC,[16],> 500 µM
same,MIC,[17],> 500 µM
same,MIC,[18],> 500 µM
same,MIC99,[19],4 µM
same,MIC,[20],> 500 µM
same,MIC,[21],> 500 µM
same,MIC99,[22],2 µM
same,MIC99,[23],8 µM
same,MIC99,[24],0.5 µM
same,MIC,[25],> 500 µM
same,MIC,[26],> 500 µM
same,MIC99,[27],1 µM
same,MIC,[28],> 500 µM
same,MIC99,[29],0.5 µM
same,MIC,[30],> 500 µM
same,MIC99,[31],2 µM
same,MIC,[32],> 500 µM
same,MIC,[33],> 500 µM
same,MIC,[34],> 500 µM
same,MIC,[35],> 500 µM
same,MIC,[36],> 500 µM
same,MIC99,[37],0.5 µM
same,MIC,[38],> 500 µM
same,MIC,[39],> 500 µM
same,MIC,[40],> 500 µM
same,MIC99,[41],1 µM
same,MIC,[42],> 500 µM
same,pIC50,[43],4.57
COc1cccc(-n2nnnc2SCn2nnc(-c3cc([N+](=O)[O-])cc([N+](=O)[O-])c3)n2)c1,MIC,[1],> 500 µM
same,MIC,[2],> 125 µM
same,MIC,[3],> 500 µM
same,MIC,[4],> 125 µM
same,MIC,[5],> 500 µM
same,MIC,[6],> 125 µM
same,MIC,[7],> 125 µM
same,MIC,[8],> 125 µM
same,MIC,[9],> 125 µM
same,MIC,[10],> 125 µM
same,MIC,[11],> 125 µM
same,MIC,[12],> 125 µM
same,MIC99,[13],2 µM
same,MIC,[14],> 125 µM
same,MIC,[15],> 500 µM
same,MIC,[16],> 125 µM
same,MIC,[17],> 500 µM
same,MIC,[18],> 125 µM
same,MIC99,[19],8 µM
same,MIC,[20],> 500 µM
same,MIC,[21],> 500 µM
same,MIC99,[22],1 µM
same,MIC99,[23],16 µM
same,MIC99,[24],0.03 µM
same,MIC,[25],> 125 µM
same,MIC,[26],> 125 µM
same,MIC99,[27],1 µM
same,MIC,[28],> 500 µM
same,MIC99,[29],0.03 µM
same,MIC,[30],> 500 µM
same,MIC99,[31],1 µM
same,MIC,[32],> 125 µM
same,MIC,[33],> 500 µM
same,MIC,[34],> 500 µM
same,MIC,[35],> 500 µM
same,MIC,[36],> 500 µM
same,MIC99,[37],0.5 µM
same,MIC,[38],> 500 µM
same,MIC,[39],> 500 µM
same,MIC,[40],> 125 µM
same,MIC99,[41],1 µM
same,MIC,[42],> 500 µM
same,pIC50,[43],3.87
